1 compound from ChEMBL document CHEMBL5537193, “Multitargeting HDAC Inhibitors Containing a RAS/RAF Protein Interfering Unit” (J Med Chem, 2024) can be followed below.

Active and inactive are the calls of the source. No cut-off for these calls is given here.

One experiment has as its system A-431. Description: cells. As to conditions: Homo sapiens, A-431, 72 h.
The test system of a further experiment is PANC-1. Description: Cell cycle arrest in human PANC-1 cells assessed as accumulation of cells at G2-M phase at 2 uM incubated for 24 hrs by PI/RNase staining based flow cytometric analysis. In kind it is functional.
The next experiment deals with HT-29. The experiment can be described thus: Inhibition of MAPK signaling pathway in human HT-29 cells assessed as inhibition of C-RAF phosphorylation at Ser338 residue at 2 uM incubated for 24 hrs by Western blot analysis. In kind it is cell-based.

Description for A-431: Cytotoxicity against human A-431 cells assessed as inhibition of cell growth incubated for 72 hrs by MTT assay

In the experiment with A-431, `COc1cc(OC)c(/C=C/S(=O)(=O)Cc2ccc(OC)c(NCC(=O)NO)c2)c(OC)c1` returned an IC50 of 550 nM. Also, in the experiment on PANC-1, the outcome was Active. For the same compound, in the experiment with HT-29, the inhibition result was “Active”.
